The values that follow come from patent US20250064789A1, “KETOAMIDE DERIVATIVES AND PHARMACEUTICAL USES THEREOF” (priority 2022, published 2025).

The target of the first assay is recombinant SARS-CoV-2 M^pro (Severe acute respiratory syndrome coronavirus 2 (2019-nCoV) (SARS-CoV-2), UniProt P0DTD1). Nature of the assay: Inhibition of SARS-CoV-2 M^pro enzyme activity (fluorescent substrate assay). As to conditions: inhibition of SARS-CoV-2 M^pro enzyme activity; values given in μM; read-out: IC50. Type of assay: biochemical.
For orientation: IC50 means the concentration that gives 50% inhibition. Take `O=C(NCc1nccs1)C(=O)[C@@H](Cc1ccccc1)NC(=O)c1ccc(F)cc1` [Compound 473]: the IC50 turned out to be 1.31 ± 0.1 µM. With `C[C@@H](NC(=O)C1CCC(F)(F)CC1)C(=O)NCC(=O)C(=O)NCc1ccccn1` [Compound 334], the half-inhibitory concentration (IC50) is over 5 µM. Take `O=C(NCc1ccccn1)C(=O)[C@@H](Cc1ccccc1)NC(=O)[C@@H]1C[C@@H]2CCCC[C@@H]2N1C(=O)C1CCC(F)(F)CC1` [Compound 264]: the IC50 is over 2.5 µM.

The same assay, now with this note: inhibition of SARS-CoV-2 M^pro enzyme activity; values in nM; read-out: IC50.
For `O=C(Cn1cc(-c2ccccc2)cn1)N[C@H](Cc1ccccc1)C(=O)C(=O)NCc1nccs1` [Compound 491], the IC50 worked out at 0.216 ± 0.0073 µM. Take `C[C@H](C(=O)N[C@H](Cc1ccccc1)C(=O)C(=O)NCc1ccccn1)N(C)C(=O)C1CCC(F)(F)CC1` [Compound 119]: the IC50 amounted to 0.0165 ± 0.0015 µM. The same measure, in the same setting: as for `C[C@@H](NC(=O)N1CCC(F)(F)CC1)C(=O)N[C@H](Cc1ccccc1)C(=O)C(=O)NCc1nccs1` [Compound 414], the figure is 0.0959 ± 0.0097 µM; as for `C[C@@H](NC(=O)CC1CCOC(C)(C)C1)C(=O)N[C@H](Cc1ccccc1)C(=O)C(=O)NCc1ccccn1` (stereo partly drawn) [Compound 136], 0.0965 ± 0.0022 µM. Same read-out and setting: as for `COc1ccc(OC(C)C(=O)N[C@H](Cc2ccccc2)C(=O)C(=O)NCc2ccccn2)cc1` (stereo partly drawn) [Compound 57], the figure is 0.351 ± 0.0068 µM; as for `O=C(NCc1ccccn1)C(=O)[C@@H](Cc1ccccc1)NC(=O)C1(NC(=O)c2[nH]nc3c2COCC3)CCC1` [Compound 200], 0.2193 ± 0.0006 µM. Still for that read-out and setting: for `C[C@H](NC(=O)C1CCC(F)(F)CC1)C(=O)N[C@H](Cc1ccccc1)C(=O)C(=O)NCc1ccccn1` [Compound 452] the value was 0.0662 ± 0.0009 µM; for `O=C(NCc1ccccn1)C(=O)[C@@H](Cc1ccccc1)NC(=O)C1(NC(=O)c2ccc(F)cc2)CCCC1` [Compound 248], 0.0246 ± 0.0006 µM; for `O=C(NCc1ccccn1)C(=O)[C@@H](Cc1ccccc1)NC(=O)[C@H]1Cc2ccccc2CN1C(=O)C1CCC(F)(F)CC1` [Compound 267], 0.0112 ± 0.0003 µM.

On to `C[C@@H](OCc1ccccc1)C(=O)N[C@H](Cc1ccccc1)C(=O)C(=O)NCc1ccc(C(F)(F)F)cn1` [Compound 38], for which the IC50 is 0.7963 ± 0.0011 µM. Same read-out and setting: as for `C[C@@H](OCc1ccc(F)cc1)C(=O)N[C@H](Cc1ccc2ccccc2c1)C(=O)C(=O)NCc1ccc(Cl)cn1` [Compound 53], the figure is 0.1878 ± 0.0007 µM. On the same count and under the same terms, for `C[C@@H](NC(=O)C1CCC(F)(F)CC1)C(=O)N[C@H](Cc1ccccc1)C(=O)C(=O)NCc1ccc(C(F)(F)F)cn1` [Compound 344] the value was 0.8572 ± 0.0031 µM. As to `O=C(CC1CCC(F)(F)CC1)NC1(C(=O)N[C@H](Cc2ccccc2)C(=O)C(=O)NCc2ccccn2)CC1` [Compound 160], the 50% inhibitory concentration (IC50) worked out at 0.0135 ± 0.0035 µM. On to `CC(C)(NC(=O)C1(F)CCCCC1)C(=O)N[C@H](Cc1ccccc1)C(=O)C(=O)NCc1ccccn1` [Compound 185], for which the 50% inhibitory concentration (IC50) came to 0.0097 ± 0.0007 µM. For `C[C@@H](NC(=O)COc1ccc(Cl)cc1F)C(=O)N[C@H](Cc1ccccc1)C(=O)C(=O)NCc1ccccn1` [Compound 86], the half-maximal inhibitory concentration (IC50) stood at 0.0705 ± 0.0025 µM. On to `O=C(NCc1ccccn1)C(=O)[C@@H](Cc1ccccc1)NC(=O)[C@H]1COCCN1C(=O)C1(F)CCCCC1` [Compound 294], for which the IC50 is 0.0145 ± 0.0002 µM.

With `O=C(NCc1ccccn1)C(=O)[C@@H](Cc1ccccc1)NC(=O)[C@@H]1[C@H]2CCC[C@H]2CN1C(=O)CC1CCC(F)(F)CC1` [Compound 259], the half-inhibitory concentration (IC50) is 0.0214 ± 0.0035 µM. Still for that read-out and setting: as for `CS(=O)(=O)CC[C@@H](NC(=O)C1CCCC(F)(F)C1)C(=O)N[C@H](Cc1ccccc1)C(=O)C(=O)NCc1nccs1` (stereo partly drawn) [Compound 568], the figure is 0.0707 ± 0.0018 µM.

`C[C@@H](NC(=O)COc1cccnc1)C(=O)N[C@H](Cc1ccccc1)C(=O)C(=O)NCc1ccccn1` [Compound 112]: the IC50 is 0.1126 ± 0.0005 µM. In the case of `COC[C@@H](NC(=O)C1CCC(F)(F)CC1)C(=O)N[C@H](Cc1ccccc1)C(=O)C(=O)NCc1ccccn1` [Compound 222], the IC50 turned out to be 0.0165 ± 0.0015 µM. As for `CC(Oc1ccc(Cl)cc1Cl)C(=O)N[C@H](C)C(=O)N[C@H](Cc1ccccc1)C(=O)C(=O)NCc1ccccn1` (stereo partly drawn) [Compound 88], the half-maximal inhibitory concentration (IC50) was 0.0244 µM.
